Values of other authors, collected in PMC9762682, “Tocotrienols: Exciting Biological and Pharmacological Properties of Tocotrienols and Naturally Occurring Compounds, Part II” (Annals of clinical case reports, 2022).
Where two headings read alike, the source gives them in different places. Marks after values point to notes of the source that are not given here.

What was measured:
[1] = design: method as in ref 14 = [14]; PMID 27493840; doi:10.4172/2155-9880.1000434; 14. Qureshi AA , Khan DA , Saleem S , Silswal N , Trias AM , Tan B , Pharmacokinetics and bioavailability of Annatto δ-tocotrienol in healthy fed subjects . J Clin Exp Cardiol . 2015; 6 : 11 . 10.417; settings: for Elimination of Half-life time (t1/2) / Elimination rate constant (ke) / Plasma Peak Concentration (Cmax) / Time to achieve plasma peak (Tmax): healthy fed subjects
[2] = tested on: α-Tocopherol Transfer Protein (α-TTP); design: method as in PMID 11271854, PMID 8632210
[3] = design: method as in ref 16 = [16]; PMID 27493840; doi:10.4172/2155-9880.1000434; 16. Qureshi AA , Khan DA , Silswal N , Saleem S , Qureshi N . Evaluation of pharmacokinetics and bioavailability of higher doses of δ-tocotrienol in healthy fed humans . J Clin Exp Cardiol . 2016; 7
[4] = plasma tocol after single 125 mg δ-tocotrienol dose
[5] = plasma tocol after single 250 mg δ-tocotrienol dose
[6] = plasma tocol after single 500 mg δ-tocotrienol dose
[7] = plasma tocol after single dose 750 mg δ-tocotrienol
[8] = plasma tocol after single dose 1000 mg δ-tocotrienol

CC(C)=CCC/C(C)=C/CC/C(C)=C/CC[C@]1(C)CCc2c(C)c(O)c(C)c(C)c2O1 [α-Tocotrienol]
time of appearance in the plasma ([1]; after δ-tocotrienol administration to well-fed subjects): > 2 h
Elimination of Half-life time (t1/2) [1, 4]: 2.62 ± 0.81^a h
Elimination rate constant (ke) [1, 4]: 1.234 ± 0.211^a h-1
Plasma Peak Concentration (Cmax) [1, 4]: 139.91 ± 11.03^a ng/mL
Time to achieve plasma peak (Tmax) [1, 4]: 2.73 ± 0.65 h
Elimination of Half-life time (t1/2) [1, 5]: 2.89 ± 0.84^a h
Elimination rate constant (ke) [1, 5]: 0.201 ± 0.050^b h-1
Plasma Peak Concentration (Cmax) [1, 5]: 204.91 ± 9.47^b ng/mL
Time to achieve plasma peak (Tmax) [1, 5]: 3.00 h
Elimination of Half-life time (t1/2) [1, 6]: 3.71 ± 0.29^b h
Elimination rate constant (ke) [1, 6]: 0.214 ± 0.009^b h-1
Plasma Peak Concentration (Cmax) [1, 6]: 290.09 ± 9.84^c ng/mL
Time to achieve plasma peak (Tmax) [1, 6]: 3.00 h
α-TTP mediated secretion from the liver into the circulatory system (affinity with α-TTP) [2]: 12%
plasma tocol level ([3]; 0 Hr., single dose 750 mg δ-tocotrienol): 241 ± 16 ng/mL
plasma tocol level ([3]; 0 Hr., single dose 1000 mg δ-tocotrienol): 292 ± 39 ng/mL
plasma tocol level ([3]; 1 hr., single dose 750 mg δ-tocotrienol): 268 ± 13 ng/mL
plasma tocol level ([3]; 1 hr., single dose 1000 mg δ-tocotrienol): 653 ± 42 ng/mL
plasma tocol level ([3]; 2 hr., single dose 750 mg δ-tocotrienol): 278 ± 7 ng/mL
plasma tocol level ([3]; 2 hr., single dose 1000 mg δ-tocotrienol): 807 ± 49 ng/mL
plasma tocol level ([3]; 4 hr., single dose 750 mg δ-tocotrienol): 293 ± 11 ng/mL
plasma tocol level ([3]; 4 hr., single dose 1000 mg δ-tocotrienol): 1125 ± 35 ng/mL
plasma tocol level ([3]; 6 hr., single dose 750 mg δ-tocotrienol): 223 ± 5 ng/mL
plasma tocol level ([3]; 6 hr., single dose 1000 mg δ-tocotrienol): 375 ± 49 ng/mL
plasma tocol level ([3]; 8 hr., single dose 750 mg δ-tocotrienol): 86 ± 16 ng/mL
plasma tocol level ([3]; 8 hr., single dose 1000 mg δ-tocotrienol): 309 ± 17 ng/mL
Elimination of Half-life time (t1/2) [3, 7]: 2.21 ± 0.18^a h
Elimination rate constant (ke) [3, 7]: 0.315 ± 0.188^a h-1
Elimination of Half-life time (t1/2) [3, 8]: 2.15 ± 0.13^b h
Time to achieve plasma peak (Tmax) [3, 8]: 4.00^a h
Total tocols (sum of 0-8 h) ([3]; single dose 750 mg δ-tocotrienol): 1389 ng/mL
Total tocols (sum of 0-8 h) ([3]; single dose 1000 mg δ-tocotrienol): 3561 ng/mL
